In patent US20080045611A1, “Methods for the therapeutic use of a carbonic anhydrase inhibitor for reducing spinal cord edema” (priority 2006, published 2008):

Experiment: Case: patient with ascending spinal cord edema after thoracic fracture and spinal cord injury, treated intravenously
Type: in vivo
Conditions: spinal cord edema on MRI after laminectomy and surgical fixation, intravenous dose of 500 mg in sterile saline, within a short period
Procedure: A patient, suffers a fractured thoracic vertebrae and spinal cord injury. […] An intravenous dose of 500 mg of acetazolamide in sterile saline is administered.

Q: With `CC(=O)Nc1nnc(S(N)(=O)=O)s1` [acetazolamide] as the compound, how does the “neurological outcome (sensory and motor functions)” value read?
A: Its value is “regains sensory and motor functions in their upper extremities”.
